# Test system: NCI-H211 complex spheroid viability
# Assay: Anticancer human tumor NCI-H211 cell line growth inhibition [LSD1];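 note: luminescent viability read after seven days of drug exposure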;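 for viability, T/C: 100% = DMSO vehicle control viability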
# Conditions: for IC50: curve of first compound; for viability, T/C: stronger effect = lower value
# Outline: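 Multicellular complex spheroids of tumor cells with human endothelial cells (HUVEC) and mesenchymal stem cells; the LSD1 inhibitor iadademstat was combined with standard-of-care or investigational agents. Top concentration at or near clinical Cmax, half-log dilutions; final DMSO ≤0.25%.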
# [1] = second compound 0.1 µM, first compound 0.00949 µM
# [2] = second compound 0.1 µM, first compound 0.03 µM
# [3] = second compound 0.1 µM, first compound 0.0949 µM
# [4] = second compound 0.1 µM, first compound 0.3 µM
# [5] = second compound 0.1 µM, first compound 0.949 µM
# [6] = second compound 0.1 µM, first compound 3 µM
# [7] = second compound 0.316 µM, first compound 0.00949 µM
# [8] = second compound 0.316 µM, first compound 0.03 µM
# [9] = second compound 0.316 µM, first compound 0.0949 µM
# [10] = second compound 0.316 µM, first compound 0.3 µM
# [11] = second compound 0.316 µM, first compound 0.949 µM
# [12] = second compound 0.316 µM, first compound 3 µM
# [13] = second compound 1 µM, first compound 0.00949 µM
# [14] = second compound 1 µM, first compound 0.03 µM
# [15] = second compound 1 µM, first compound 0.0949 µM
# [16] = second compound 1 µM, first compound 0.3 µM
# [17] = second compound 1 µM, first compound 0.949 µM
# [18] = second compound 1 µM, first compound 3 µM
# [19] = second compound 3.16 µM, first compound 0.00949 µM
# [20] = second compound 3.16 µM, first compound 0.03 µM
# [21] = second compound 3.16 µM, first compound 0.0949 µM
# [22] = second compound 3.16 µM, first compound 0.3 µM
# [23] = second compound 3.16 µM, first compound 0.949 µM
# [24] = second compound 3.16 µM, first compound 3 µM
# [25] = second compound 10 µM, first compound 0.00949 µM
# [26] = second compound 10 µM, first compound 0.03 µM
# [27] = second compound 10 µM, first compound 0.0949 µM
# [28] = second compound 10 µM, first compound 0.3 µM
# [29] = second compound 10 µM, first compound 0.949 µM
# [30] = second compound 10 µM, first compound 3 µM
Compound,IC50 (second compound 0.1 µM) [nM],IC50 (second compound 0.316 µM) [nM],IC50 (second compound 1 µM) [nM],IC50 (second compound 3.16 µM) [nM],IC50 (second compound 10 µM) [nM],"viability, T/C [1] [%]","viability, T/C [2] [%]","viability, T/C [3] [%]","viability, T/C [4] [%]","viability, T/C [5] [%]","viability, T/C [6] [%]","viability, T/C [7] [%]","viability, T/C [8] [%]","viability, T/C [9] [%]","viability, T/C [10] [%]","viability, T/C [11] [%]","viability, T/C [12] [%]","viability, T/C [13] [%]","viability, T/C [14] [%]","viability, T/C [15] [%]",also measured
NS(=O)(=O)OCC1CC(n2ccc3c(NC4CCc5ccccc54)ncnc32)CC1O (stereo not given) + NC1CC1c1ccc(-c2cccc(O)c2)cc1,< 9.49,< 9.49,< 9.49,< 9.49,< 9.49,21.2,9.36,4.3,1.71,1.1,0.94,20.3,13.6,2.93,1.2,1.09,0.81,20.4,10.4,3.57,"viability, T/C [16]: 1.64%; viability, T/C [17]: 1.11%; viability, T/C [18]: 0.79%; viability, T/C [19]: 26.8%; viability, T/C [20]: 13.2%; viability, T/C [21]: 5.17%; viability, T/C [22]: 2.04%; viability, T/C [23]: 0.97%; viability, T/C [24]: 0.81%; viability, T/C [25]: 27.4%; viability, T/C [26]: 12%; viability, T/C [27]: 5.24%; viability, T/C [28]: 1.75%; viability, T/C [29]: 0.61%; viability, T/C [30]: 0.57%"
Nc1ccccc1NC(=O)c1ccc(CNC(=O)OCc2cccnc2)cc1 + NC1CC1c1ccc(-c2cccc(O)c2)cc1,12.2,< 9.49,< 9.49,< 9.49,12,56.5,26.4,4.02,1.9,1.18,0.14,46.8,18.2,4.2,2.36,1.27,0.1,45.8,25.1,3.68,"viability, T/C [16]: 2.02%; viability, T/C [17]: 1.28%; viability, T/C [18]: 0.1%; viability, T/C [19]: 43.4%; viability, T/C [20]: 24.5%; viability, T/C [21]: 4.34%; viability, T/C [22]: 3.1%; viability, T/C [23]: 1.14%; viability, T/C [24]: 0.14%; viability, T/C [25]: 53.6%; viability, T/C [26]: 36.1%; viability, T/C [27]: 5.02%; viability, T/C [28]: 2.76%; viability, T/C [29]: 0.95%; viability, T/C [30]: 0.16%"
O=C(C=Cc1cccc(S(=O)(=O)Nc2ccccc2)c1)NO + NC1CC1c1ccc(-c2cccc(O)c2)cc1,< 9.49,< 9.49,< 9.49,< 9.49,< 9.49,14.7,8.14,7.87,3.8,0.63,0.14,13.9,7.23,7.38,4.67,0.66,0.16,13.9,8.11,9.23,"viability, T/C [16]: 4.38%; viability, T/C [17]: 0.39%; viability, T/C [18]: 0.17%; viability, T/C [19]: 15.4%; viability, T/C [20]: 7.28%; viability, T/C [21]: 7.21%; viability, T/C [22]: 4.21%; viability, T/C [23]: 0.29%; viability, T/C [24]: 0.16%; viability, T/C [25]: 13.5%; viability, T/C [26]: 6.43%; viability, T/C [27]: 7.11%; viability, T/C [28]: 3.82%; viability, T/C [29]: 0.24%; viability, T/C [30]: 0.27%"
